Source: patent US20230150951A1, “2,5- OR 2,6-DISUBSTITUTED HYDROQUINONE DERIVATIVES WITH AT LEAST ONE CARBOXY, SULFO OR AMIDO GROUP USEFUL AS MEDICAMENTS” (OM PHARMA SA, priority 2020, published 2023)

Molecular target: T1, VEGF-A (Homo sapiens, UniProt P15692)
T1 construct: purchased ProQinase GmbH
T1 sequence (P15692 27-191 isoform P15692-4): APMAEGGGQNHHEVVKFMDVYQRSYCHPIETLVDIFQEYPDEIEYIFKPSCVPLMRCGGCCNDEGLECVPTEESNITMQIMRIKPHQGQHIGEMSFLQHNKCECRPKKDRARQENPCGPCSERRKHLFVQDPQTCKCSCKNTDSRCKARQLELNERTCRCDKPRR
Experiment: VEGF-A induced sprouting of HUVEC, spheroid-based cellular angiogenesis assay
Format: cell-based
Details: VEGF-A 25 ng/mL preincubated with compound, 24 h, read-out: VEGF-A1 IC50
Summary of the method: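 Spheroids of 400 HUVEC (passage 3–4), embedded in collagen gel, were stimulated with FGF-1, FGF-2 or VEGF-A (final 25 ng/mL) preincubated 30 min at 37°C with compound (final 1.56–100 μM).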

SMILES	IC50 [µM]
CC(=O)N(Cc1cc(O)c(C(=O)O)cc1O)Cc1cc(O)c(C(=O)O)cc1O [IIIc-057a, N,N-Bis(4-carboxy-2,5-dihydroxyphenylmethyl)acetamide]	38
O=C(O)c1cc(NC(=O)c2cc(O)c(C(=O)Nc3ccc(O)c(C(=O)O)c3)cc2O)ccc1O [Ic-007a, 5-(4-(3-carboxy-4-hydroxyphenylaminocarbonyl)-2,5-dihydroxybenzamido)-2-hydroxy benzoic acid]	3.2
O=C(O)c1ccccc1CNC(=O)c1cc(O)cc(C(=O)O)c1O [IIa-053a, 3-(2-Carboxyphenylmethylaminocarbonyl)-2,5-dihydroxybenzoic acid]	37
O=C(O)c1cc(NC(=O)c2cc(O)c(C(=O)Nc3ccccc3-c3nnn[nH]3)cc2O)ccc1O [Ic-001a-Tz/004a, 5-(4-(2-(1H-tetrazol-5-yl)phenylaminocarbonyl)-2,5-dihydroxybenzamido)-2-hydroxy benzoic acid]	25
O=C(O)c1cc(O)c(C(=O)Nc2ccccc2S(=O)(=O)O)cc1O [Ia-001c, 2,5-dihydroxy-4-(2-sulfophenylaminocarbonyl)benzoic acid]	≥ 100
O=C(O)Cc1cc(O)c(C(=O)Nc2ccccc2-c2nnn[nH]2)cc1O [IIIa-001aTz]	12
O=C(O)c1cc(O)ccc1NC(=O)c1cc(O)cc(C(=O)Nc2ccc(O)cc2C(=O)O)c1O [IIc-009a, 2-(3-(2-carboxy-4-hydroxyphenylaminocarbonyl)-2,5-dihydroxybenzamido)-5-hydroxyl benzoic acid]	182

Further molecules by falling IC50, results first:

IC50 [µM]	SMILES
83	O=C(O)c1cc(O)cc(CSCc2cc(O)cc(C(=O)O)c2O)c1O [IVc-058a, 3-((2,5-Dihydroxy-3-carboxyphenyl)methylthiomethyl)-2,5-dihydroxybenzoic acid]
45	O=C(Nc1ccccc1-c1nnn[nH]1)c1cc(O)c(C(=O)Nc2ccccc2-c2nnn[nH]2)cc1O [Ic-001aTz2, N1,N4-bis(2-(1H-tetrazol-5-yl)phenyl)-2,5-dihydroxyterephthalamide]
43	O=C(O)Cc1cc(O)c(C(=O)Nc2c(C(=O)O)cccc2C(=O)O)cc1O [IIIa-013a, 2-(4-(carboxymethyl)-2,5-dihydroxybenzamido)isophthalic acid]
25	COC(=O)c1cc(OC(C)=O)cc(CS(=O)(=O)Cc2cc(OC(C)=O)cc(C(=O)OC)c2OC(C)=O)c1OC(C)=O [IVc-059a-E2-A4]
21	O=C(O)c1cc(O)c(CN(Cc2cc(O)c(C(=O)O)cc2O)Cc2cc(O)c(C(=O)O)cc2O)cc1O [IIIc-061a, Tris(4-carboxy-2,5-dihydroxyphenylmethyl)amine]
19	O=C(O)c1cc(NC(=O)c2cc(O)c(C(=O)O)cc2O)cc(C(=O)O)c1 [Ia-015a, 5-(4-carboxy-2,5-dihydroxybenzamido)isophthalic acid]
17	O=C(O)c1cc(O)c(C(=O)Nc2ccccc2-c2nnn[nH]2)cc1O [Ia-001a-Tz, 4-(2-(1H-tetrazol-5-yl)phenyl-aminocarbonyl)-2,5-dihydroxybenzoic acid]
15	O=C(O)c1cc(NC(=O)c2cc(O)c(C(=O)O)cc2O)cc(NC(=O)c2cc(O)c(C(=O)O)cc2O)c1 [Ib-010a, 3,5-bis(2,5-dihydroxy-4-carboxybenzoylamino)benzoic acid]
13	O=C(O)c1cc(O)c(C(=O)Nc2ccc(-c3nnn[nH]3)cc2)cc1O [Ia-003a-Tz, 4-(4-(1H-tetrazol-5-yl)phenyl-aminocarbonyl)-2,5-dihydroxybenzoic acid]
12	O=C(O)c1cc(O)cc(CS(=O)(=O)Cc2cc(O)cc(C(=O)O)c2O)c1O [IVc-059a, 3-((2,5-Dihydroxy-3-carboxyphenyl)methylsulfonylmethyl)-2,5-dihydroxybenzoic acid]
7.3	O=C(O)c1cc(O)c(C(=O)Nc2ccccc2C(=O)O)cc1O [Ia-001a, 4-(2-carboxyphenylaminocarbonyl)-2,5-dihydroxybenzoic acid]
